Results from PMC3266270, “Biochemical Discrimination between Selenium and Sulfur 1: A Single Residue Provides Selenium Specificity to Human Selenocysteine Lyase” (PLoS ONE, 2012).

How the values were obtained:
[1] = biological target: T1, hSCL (human selenocysteine lyase) (Homo sapiens, UniProt Q96I15); experiment: alanine dehydrogenase-coupled detection of product alanine; format: biochemical; conditions: 5 mM seleno-L-cystine reduced in situ by 50 mM DTT (10 mM Sec equivalent), 0.2 mM PLP, pH 8.5, 37 °C, under nitrogen; time course only
T1 construct: gene SCLY; residues 8-445, N-terminal His6-TEV tag cleaved before assay and crystallization; E. coli BL21(DE3); homodimer
T1 sequence (Q96I15 8-445): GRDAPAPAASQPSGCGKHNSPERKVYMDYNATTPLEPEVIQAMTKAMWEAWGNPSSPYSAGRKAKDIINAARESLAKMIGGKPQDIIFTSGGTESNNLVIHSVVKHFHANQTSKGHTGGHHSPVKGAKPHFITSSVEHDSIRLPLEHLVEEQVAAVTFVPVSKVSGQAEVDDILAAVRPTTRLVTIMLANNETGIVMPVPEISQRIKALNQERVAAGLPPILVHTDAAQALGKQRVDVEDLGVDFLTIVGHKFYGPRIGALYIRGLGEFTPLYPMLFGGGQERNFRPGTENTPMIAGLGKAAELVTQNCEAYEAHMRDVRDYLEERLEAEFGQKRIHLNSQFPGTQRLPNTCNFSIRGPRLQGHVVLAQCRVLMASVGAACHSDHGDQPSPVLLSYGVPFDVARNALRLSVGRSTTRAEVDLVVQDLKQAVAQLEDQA

[2] = biological target: T1, hSCL (human selenocysteine lyase); experiment: X-ray crystal structure; format: binding; conditions: P2_12_12_1 crystal, 2.1 Å; pH 6.7; copurified cofactor; active site at homodimer interface
[3] = biological target: the molecule itself; experiment: crystal structure; hSCL with PLP, His-tag cleaved; two crystal forms: P2(1)2(1)2(1), 2.1 A, 100 mM HEPES pH 6.7, 10% PEG6000, one dimer per asymmetric unit; P1, 1.8 A, 50 mM HEPES pH 8.1, 200 mM ammonium nitrate, 25% PEG3350, soaked with 10 mM L-cysteine for 2 h, two dimers per asymmetric unit; crystals grown at 20 C

**Q.** For `N[C@@H](C[SeH])C(=O)O` [Sec], which “alanine dehydrogenase-coupled detection of product alanine” value [1] is on record?
**A.** Its value is “The activity with Sec observed in the wild-type enzyme was not altered”.

**Q.** `Cc1ncc(COP(=O)(O)O)c(C=O)c1O` [PLP] was tested. Which X-ray crystal structure [2] did it give?
**A.** The X-ray crystal structure was “Human SCL homodimer in complex with the co-factor PLP”.

B1: human selenocysteine lyase (hSCL), residues 8-445 (enzyme, UniProt Q96I15 8-445, looked up)
chain: T1 sequence (Q96I15 8-445)
notes: human selenocysteine lyase (hSCL), residues 8-445, cDNA clone from the Mammalian Gene Collection (GenBank BC007891.2), cloned in pNIC-Bsa4; residues 120-132 are disordered; A few vector residues probably remain at the N-terminus after TEV cleavage (surmised; also called human SCL; Sec lyase; source: His-tag removed with TEV protease); not shown: His6, N-terminal, cleaved
**Q.** B1 was tested. Which “stoichiometry N” value [3] did it give?
**A.** Its value is 2.
